The values below come from patent publication US7348402B2, “Antimicrobial peptide, its analogs and antimicrobial composition comprising them” (priority 2002, dated 2008).

No end group written: not given here.

Type in all cases: cell-based
Test [1] has as its system Salmonella enteritidis (ATCC 15277). Particulars: ATCC 15277, 12 h. From the text: (§1) The microorganisms used in the present invention include Gram-positive bacteria such as Bacillus subtilis (ATCC 62037), Staphylococcus aureus (ATCC 15752) and Streptococcus mutans (ATCC 25175), Gram-negative bacteria such as Escherichia coli (ATCC 27325), Salmonella enteritidis (ATCC 15277) and Pseudomonas putida (ATCC 17426) and fungi such as Candida albicans (ATCC 10231), Saccharomyces cerevisiae (ATCC 44774) and Cryptococcus neoformans (ATCC 34881), obtained from American Type Culture Collection (ATCC).
(§2) The antimicrobial activity of the peptides prepared in Example 1 was determined against microorganisms by 96-well microdilution minimal inhibitory concentration assay. After overnight culturing the bacteria and fungi in trypticase soy broth (TSB) and Saboraud (SAB) at 37° C. and 30° C., respectively, they were inoculated in new media and cultured for 2 hours to exponential growth phase. After diluting the microorganisms to 10^5 per 1 ml, 190 μl was inoculated in each 96-well plate, and 10 μl of serially diluted peptides were added in each well.

In test [2] the test system is Escherichia coli (ATCC 27325). As to conditions: ATCC 27325, 12 h.
Description: as §1, §2

In test [3] the test system is Candida albicans (ATCC 10231). As to conditions: ATCC 10231, 12 h.
Description: as §1, §2

Test [4] deals with Cryptococcus neoformans (ATCC 34881). As to conditions: ATCC 34881, 12 h.
Description: as §1, §2

The subject of test [5] is Staphylococcus aureus (ATCC 15752). As to conditions: ATCC 15752, 12 h.
Description: as §1, §2

Test [6] deals with Pseudomonas putida (ATCC 17426). Particulars: ATCC 17426, 12 h.
Description: as §1, §2

The subject of test [7] is Bacillus subtilis (ATCC 62037). Particulars: ATCC 62037, 12 h.
Description: as §1, §2

Test [8] has as its system Saccharomyces cerevisiae (ATCC 44774). As to conditions: ATCC 44774, 12 h.
Description: as §1, §2

Test [9] relates to Streptococcus mutans (ATCC 25175). As to conditions: ATCC 25175, 12 h.
Description: as §1, §2

Consider KLVRQWPIGKLVRKLVRKLVR [compound 16], for which the “Minimum Inhibitory Concentration” value in test [1], in test [2], in test [3], in test [4], in [5] and in [6] was 1 µg/mL throughout. The “Minimum Inhibitory Concentration” value in [7] stood at 2 µg/mL; in test [8], 1 µg/mL; in test [9], 2 µg/mL.

Consider KLVRQWPIGKLVRKLVRKLVR-NH2 [compound 69], for which the “Minimum Inhibitory Concentration” value was 2 µg/mL in test [1]; 1 µg/mL in [2]; 1 µg/mL in test [3]; 1 µg/mL in test [4]; 1 µg/mL in test [5]; 1 µg/mL in test [6]. Moreover, the “Minimum Inhibitory Concentration” value was 1 µg/mL in test [7], 2 µg/mL in test [8] and 1 µg/mL in test [9].

Regarding KVLKKVLKKVLKNWPIGKVLK [compound 57], the “Minimum Inhibitory Concentration” value worked out at 1 µg/mL in test [1]; 2 µg/mL in [2]; 1 µg/mL in test [3]; 1 µg/mL in [4]; 1 µg/mL in [5]; 1 µg/mL in test [6]. In addition, the “Minimum Inhibitory Concentration” value amounted to 1 µg/mL in test [7], 2 µg/mL in test [8] and 2 µg/mL in test [9].

In the case of KVLKNWPIGKVLKKVLKKVLK [compound 23], the “Minimum Inhibitory Concentration” value is 2 µg/mL in test [1]; 1 µg/mL in test [2]; 1 µg/mL in test [3]; 1 µg/mL in test [4]; 1 µg/mL in test [5]; 1 µg/mL in test [6]. Moreover, the results for the “Minimum Inhibitory Concentration” value in [7], in test [8] and in [9] were 1 µg/mL, 1 µg/mL and 2 µg/mL, respectively.

With KVLRKVLRKVLRNWPIGKVLR [compound 65], the “Minimum Inhibitory Concentration” value is 2 µg/mL in test [1]; 1 µg/mL in test [2]; 1 µg/mL in test [3]; 1 µg/mL in test [4]; 1 µg/mL in test [5]; 1 µg/mL in [6]. For the same substance, the “Minimum Inhibitory Concentration” value in [7] amounted to 2 µg/mL; in test [8], 1 µg/mL; in test [9] it was 2 µg/mL.

Regarding KVLRKVLRKVLRQWPIGKVLR-NH2 [compound 71], the “Minimum Inhibitory Concentration” value in test [1], in [2], in test [3], in test [4], in [5] and in [6] was 1 µg/mL each time. Moreover, the “Minimum Inhibitory Concentration” value in [7] was 1 µg/mL; in test [8], 2 µg/mL; in test [9], 1 µg/mL.

KVLRNWPIGKVLRKVLRKVLR [compound 31]: the “Minimum Inhibitory Concentration” value in [1], in test [2], in test [3], in [4], in test [5] and in [6] was 1 µg/mL in each case. Moreover, the “Minimum Inhibitory Concentration” value came to 1 µg/mL in test [7], 2 µg/mL in test [8] and 2 µg/mL in test [9].

With KVVKKVVKKVVKNWPIGKVVK [compound 53], the “Minimum Inhibitory Concentration” value in test [1] was 1 µg/mL; in test [2], 1 µg/mL; in test [3] it was 2 µg/mL; in test [4], 1 µg/mL; in test [5] it was 1 µg/mL; in [6], 1 µg/mL. The “Minimum Inhibitory Concentration” value in test [7], in test [8] and in test [9] was 1 µg/mL throughout.

KVVKKVVKKVVKQWPIGKVVK [compound 36]: the “Minimum Inhibitory Concentration” value in test [1] is 1 µg/mL; in [2], 2 µg/mL; in [3], 2 µg/mL; in test [4], 1 µg/mL; in test [5], 1 µg/mL; in [6] it was 1 µg/mL. Besides, the entries for the “Minimum Inhibitory Concentration” value in test [7], in test [8] and in [9] were 1 µg/mL, 2 µg/mL and 2 µg/mL, respectively.

Consider KVVKNWPIGKVVKKVVKKVVK [compound 19], for which the “Minimum Inhibitory Concentration” value in test [1] was 1 µg/mL; in [2], 2 µg/mL; in test [3], 1 µg/mL; in test [4], 1 µg/mL; in [5], 1 µg/mL; in [6], 1 µg/mL. Moreover, the “Minimum Inhibitory Concentration” value in test [7] stood at 2 µg/mL; in test [8] it was 2 µg/mL; in [9], 1 µg/mL.

Turning to KVVKQWPIGKVVKKVVKKVVK [compound 2], the “Minimum Inhibitory Concentration” value in test [1], in test [2], in test [3], in test [4], in [5] and in [6] was 1 µg/mL throughout. The “Minimum Inhibitory Concentration” value worked out at 1 µg/mL in [7], 2 µg/mL in test [8] and 2 µg/mL in test [9].

Consider KVVRKVVRKVVRQWPIGKVVR [compound 44], for which the “Minimum Inhibitory Concentration” value in [1] turned out to be 1 µg/mL; in [2], 1 µg/mL; in test [3] it was 2 µg/mL; in test [4], 1 µg/mL; in [5], 1 µg/mL; in test [6], 1 µg/mL. Also, the “Minimum Inhibitory Concentration” value in test [7] was 2 µg/mL; in [8], 1 µg/mL; in test [9], 2 µg/mL.

For the substance KVVRQWPIGKVVRKVVRKVVR [compound 10], the “Minimum Inhibitory Concentration” value in [1] was determined as 1 µg/mL; in test [2] it was 1 µg/mL; in test [3] it was 2 µg/mL; in test [4] it was 1 µg/mL; in test [5] it was 1 µg/mL; in [6] it was 1 µg/mL. Also, the figures for the “Minimum Inhibitory Concentration” value in test [7], in test [8] and in test [9] were 1 µg/mL, 2 µg/mL and 2 µg/mL, respectively.
